Source: patent US8507529B2, “Methods of using a nitroxide antioxidant in cosmetic and dermatological compositions” (Jarrow Formulas, Inc., priority 2005, dated 2013)

Legend:
[1] = Optical absorption spectra before and after UVA exposure (photostability); format: physicochemical; details: 100 μM in phosphate buffer pH 7.4, 275 kJ/m^2 UVA, ethyl acetate extraction, FIG. 3
Method: FIG. 3. […] See Detailed Description for experimental details.
The reason for using buffer was to maintain the same medium as the peroxidation experiments so that comparisons between the optical absorption experiments and lipid peroxidation could be meaningful.
10 mM Stock solutions of TEMPOL and the photoactive ingredients were prepared in acetonitrile. […] The solutions were then transferred to a 24 multi-well plate for cell cultures (Orange Scientific, Cambrex BioScience, Walkerville, Inc.) which was placed on a brass block embedded on ice at a distance of 20 cm from the light source. […] After illumination, 2.4 ml of sample were collected from each well and extracted with the same volume of ethyl acetate. The organic phase was separated and its absorption spectrum was then run on a UV Kontron 941 spectrophotometer. For the non-illuminated samples, the same procedure was followed for the same length of time except that the samples were exposed to direct artificial laboratory working light.

[2] = Absorption spectra of 50 μM compounds in acetonitrile; format: physicochemical; details: 50 μM in acetonitrile, FIG. 2
Method: FIG. 2. Absorption spectra of 50 μM compounds in acetonitrile.

[3] = Peroxidation of multilamellar phosphatidylcholine (PC) liposomes induced by UVA, TBA assay (TBARS); details: 3.5 mM PC liposomes, 275 kJ/m^2 UVA; for level of UVA-induced lipid peroxidation (TBARS absorbance): 100 μM compounds alone or combined, FIG. 4
human dermal fibroblasts = details: cited from earlier work
[4] = test system: transgenic murine fibroblast culture; details: transgenic murine fibroblast culture model of cutaneous photoaging; cited from earlier work

Compound	change in spectral absorption after UVA exposure [1]	level of UVA-induced lipid peroxidation (TBARS absorbance) [3]	further results
2,2,6,6-tetramethyl-piperidin-4-yl-p-methoxy cinnamyloxy-1-oxyl [MC-NO]	retains the majority of its original absorbance	greatly reduced to almost control levels	spectral profile and extinction coefficient [2]: same spectral profile and extinction coefficient as OMC
CC1(C)CC(O)CC(C)(C)N1[O] [TEMPOL, 4-hydroxy-2,2,6,6,-tetramethyl-piperidine-1-oxyl]			protection against UV radiation (human dermal fibroblasts): affords protection against UV radiation; protection against UV radiation [4]: affords protection against UV radiation
CCCCC(CC)COC(=O)C=Cc1ccc(OC)cc1 (centres unmarked) [OMC, 2-ethylhexyl-4-methoxycinnamate]	strong decrease in spectral absorption	seems to protect	
COc1ccc(C(=O)CC(=O)c2ccc(C(C)(C)C)cc2)cc1 [Parsol 1789, 4-tert-butyl-4′-methoxydibenzoylmethane]			level of UVA-induced lipid peroxidation (TBARS absorbance) with Parsol 1789 ([3]; 100 μM Parsol 1789 alone or combined with 100 μM compound, FIG. 5): significant increase
